Source: US7960556B2, “Thiadiazole derivatives for the treatment of neuro-degenerative diseases” (NV reMYND, priority 2006, dated 2011)

Tested on: α-synuclein cytotoxicity in M17-SYNwt cells
Assay: α-synuclein cytotoxicity assay: LDH leakage from paraquat-treated M17-SYNwt neuroblastoma cells;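 note: paraquat at 32 mM co-added with compound, 40 h exposure, LDH activity released into the culture medium measured, references are DMSO-only cells and paraquat plus DMSO cells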
Settings: Homo sapiens, Neuroblastoma cell; for Emax: read-out: % Inhib.

Compound	EC50	Emax
Cc1ccc(Cc2nsc(N3CCN(C(=O)c4ccc(F)cc4)C(C)C3)n2)cc1 (stereo not drawn) [compound 151, 1-(4-fluorobenzoyl)-4-[3-(4-methylbenzyl)-1,2,4-thiadiazol-5-yl]-2-methylpiperazine]	1140 nM	73%
O=S(=O)(c1ccc2ccccc2c1)N1CCN(c2nc(Cc3ccc(Cl)cc3)ns2)CC1 [compound 52, 1-[2-naphtylsulfonyl]-4-[3-(4-chlorobenzyl)-1,2,4-thiadiazol-5-yl]piperazine]	100 nM	104%
COc1ccc(S(=O)(=O)N2CCN(c3nc(Cc4ccc(F)cc4)ns3)CC2)cc1 [compound 74, 1-[4-methoxyphenylsulfonyl]-4-[3-(4-fluorobenzyl)-1,2,4-thiadiazol-5-yl]piperazine]	0.105 nM	44%
Cc1ccc(Cc2nsc(N3CCN(S(=O)(=O)c4c(C)cc(C)cc4C)C(C)C3)n2)cc1 (stereo not drawn) [compound 45, 1-[2,4,6-trimethylphenylsulfonyl]-4-[3-(4-methylbenzyl)-1,2,4-thiadiazol-5-yl]-2-methylpiperazine]	1200 nM	56%
COc1ccc(C(=O)N2CCN(c3nc(Cc4ccc(F)cc4)ns3)CC2C)cc1 (stereo not drawn) [compound 118, 1-(4-methoxybenzoyl)-4-[3-(4-fluorobenzyl)-1,2,4-thiadiazol-5-yl]-2-methylpiperazine]	91.1 nM	64%
Cc1ccc(Cc2nsc(N3CCN(S(=O)(=O)c4cccc5ccccc45)CC3)n2)cc1 [compound 35, 1-[1-naphtylsulfonyl]-4-[3-(4-methylbenzyl)-1,2,4-thiadiazol-5-yl]piperazine]	47.2 nM	47%
Cc1ccc(Cc2nsc(N3CCN(C(=O)c4ccccc4F)CC3)n2)cc1 [compound 175, 1-(2-fluorobenzoyl)-4-[3-(4-methylbenzyl)-1,2,4-thiadiazol-5-yl]piperazine]	–	78%
O=C(c1ccccc1F)N1CCN(c2nc(Cc3ccc(Cl)cc3)ns2)CC1 [compound 159, 1-(2-fluorobenzoyl)-4-[3-(4-chlorobenzyl)-1,2,4-thiadiazol-5-yl]piperazine]	2850 nM	48%
COc1cccc(Cc2nsc(N3CCN(C(=O)c4ccc(C(C)(C)C)cc4)C(C)C3)n2)c1 (stereo not drawn) [compound 146, 1-(4-tert-butylbenzoyl)-4-[3-(3-methoxybenzyl)-1,2,4-thiadiazol-5-yl]-2-methylpiperazine]	720 nM	94%
COc1cc(NC(=O)N2CCN(c3nc(Cc4ccc(F)cc4)ns3)CC2C)cc(OC)c1 (stereo not drawn) [compound 29, N-(3,5-dimethoxyphenyl)-4-[3-(4-fluorobenzyl)-1,2,4-thiadiazol-5-yl]-2-methylpiperazine-1-carboxamide]	–	51%
CCCCCc1ccc(C(=O)N2CCN(c3nc(Cc4ccc(C)cc4)ns3)CC2C)cc1 (stereo not drawn) [compound 134, 1-(4-pentylbenzoyl)-4-[3-(4-methylbenzyl)-1,2,4-thiadiazol-5-yl]-2-methylpiperazine]	300 nM	75%
CC1CN(c2nc(Cc3ccc(F)cc3)ns2)CCN1C(=O)Nc1cccc2ccccc12 (stereo not drawn) [compound 25, N-1-naphtyl-4-[3-(4-fluorobenzyl)-1,2,4-thiadiazol-5-yl]-2-methylpiperazine-1-carboxamide]	1690 nM	97%
CC1CN(c2nc(Cc3ccc(F)cc3)ns2)CCN1S(=O)(=O)c1cccc(C(F)(F)F)c1 (stereo not drawn) [compound 46, 1-[3-trifluorophenylsulfonyl]-4-[3-(4-fluorobenzyl)-1,2,4-thiadiazol-5-yl]-2-methylpiperazine]	1340 nM	64%
Cc1ccc(S(=O)(=O)N2CCN(c3nc(Cc4ccc(Cl)cc4)ns3)CC2)cc1 [compound 63, 1-[4-methylphenylsulfonyl]-4-[3-(4-chlorobenzyl)-1,2,4-thiadiazol-5-yl]piperazine]	80.7 nM	83%
CCCCc1ccc(C(=O)N2CCN(c3nc(Cc4ccc(C)cc4)ns3)CC2)cc1 [compound 182, 1-(4-butylbenzoyl)-4-[3-(4-methylbenzyl)-1,2,4-thiadiazol-5-yl]piperazine]	–	57%
CC1CN(c2nc(Cc3ccc(F)cc3)ns2)CCN1C(=O)c1ccccc1 (stereo not drawn) [compound 126, 1-benzoyl-4-[3-(4-fluorobenzyl)-1,2,4-thiadiazol-5-yl]-2-methylpiperazine]	210 nM	63%
CCCCCCc1ccc(C(=O)N2CCN(c3nc(Cc4ccc(F)cc4)ns3)CC2)cc1 [compound 121, 1-(4-hexylbenzoyl)-4-[3-(4-fluorobenzyl)-1,2,4-thiadiazol-5-yl]piperazine]	120 nM	64%
CCc1ccc(C(=O)NCCN2CCN(c3nc(Cc4ccc(F)cc4)ns3)CC2)cc1 [compound 103, 4-ethyl-N-{2-[4-[3-(4-fluorobenzyl)-1,2,4-thiadiazol-5-yl]piperazin-1-yl]ethyl}benzamide]	2320 nM	139%
O=C(Nc1ccc(F)c(F)c1)N1CCN(c2nc(Cc3ccc(F)cc3)ns2)CC1 [compound 28, N-(3,4-difluorophenyl)-4-[3-(4-fluorobenzyl)-1,2,4-thiadiazol-5-yl]piperazine-1-carboxamide]	–	64%
Cc1ccc(C(=O)N2CCN(c3nc(Cc4ccc(F)cc4)ns3)CC2)cc1 [compound 141, 1-(4-methylbenzoyl)-4-[3-(4-fluorobenzyl)-1,2,4-thiadiazol-5-yl]piperazine]	490 nM	75%
COc1ccc(S(=O)(=O)N2CCN(c3nc(Cc4ccccc4)ns3)CC2)cc1 [compound 199, 1-[4-methoxyphenylsulfonyl]-4-[3-benzyl-1,2,4-thiadiazol-5-yl]piperazine]	3.8 nM	38%
Cc1ccc(Cc2nsc(N3CCN(C(=O)c4cccc(F)c4)CC3)n2)cc1 [compound 162, 1-(3-flurorbenzoyl)-4-[3-(4-methylbenzyl)-1,2,4-thiadiazol-5-yl]piperazine]	3400 nM	101%
O=C(c1ccccc1)N1CCN(c2nc(Cc3ccc(F)cc3)ns2)CC1 [compound 181, 1-benzoyl-4-[3-(4-fluorobenzyl)-1,2,4-thiadiazol-5-yl]piperazine]	–	60%
CC1CN(c2nc(Cc3ccc(F)cc3)ns2)CCN1C(=O)Nc1ccc(F)cc1F (stereo not drawn) [compound 23, N-(2,4-difluorophenyl)-4-[3-(4-fluorobenzyl)-1,2,4-thiadiazol-5-yl]-2-methylpiperazine-1-carboxamide]	940 nM	66%
CC1CN(c2nc(Cc3ccc(F)cc3)ns2)CCN1C(=O)c1ccc([N+](=O)[O-])cc1 (stereo not drawn) [compound 184, 1-(4-nitrobenzoyl)-4-[3-(4-fluorobenzyl)-1,2,4-thiadiazol-5-yl]-2-methylpiperazine]	–	52%
CCC(C(=O)N1CCN(c2nc(Cc3ccc(F)cc3)ns2)CC1C)c1ccccc1 (stereo not drawn) [compound 8, 1-(2-phenylbutanoyl)-4-[3-(4-fluorobenzyl)-1,2,4-thiadiazol-5-yl]-2-methylpiperazine]	1490 nM	71%
Cc1ccc(C(=O)NCCN2CCN(c3nc(Cc4ccc(F)cc4)ns3)CC2)cc1 [compound 101, 4-methyl-N-{2-[4-[3-(4-fluorobenzyl)-1,2,4-thiadiazol-5-yl]piperazin-1-yl]ethyl}benzamide]	1940 nM	68%
